Data published in publication PMC9814530, “Rapid de novo discovery of peptidomimetic affinity reagents for human angiotensin converting enzyme 2” (Communications Chemistry, 2022).
pKd: −log10 of the molar value. *1 amine or outer side, *2 acyl side, *3 side chain or, on linkers, in order; H or OH if unused. Where a SMILES comes first, the peptide text is derived from it. Where no end group is shown, it is not given here. [ ]: non-standard residue; d: D form. Phe(3,4-(OMe)2) = COc1ccc(C[C@H](N)C(=O)O)cc1OC; Phe(3,4-F2) = N[C@@H](Cc1ccc(F)c(F)c1)C(=O)O; Ala(4-thiazolyl) = N[C@@H](Cc1cscn1)C(=O)O; X1 = O=C(C1(c2ccccc2)CCN([*:1])CC1)[*:2]; Phe(4-NH2) = Nc1ccc(C[C@H](N)C(=O)O)cc1; Met(O2) = CS(=O)(=O)CC[C@H](N)C(=O)O; Ala(cPr) = N[C@@H](CC1CC1)C(=O)O; Hyp = O=C(O)[C@@H]1C[C@@H](O)CN1; hArg = N=C(N)NCCCC[C@H](N)C(=O)O; Cha = N[C@@H](CC1CCCCC1)C(=O)O; 4Amb = NCc1ccc(C(=O)O)cc1; β3hS = N[C@@H](CO)CC(=O)O; Orn = NCCC[C@H](N)C(=O)O; βAla = NCCC(=O)O

Experiments:
ACE2 [1] = biological target: T1, ACE2 (Homo sapiens, UniProt Q9BYF1); assay: BLI binding competition of known ACE2 binders (AngII, MLN-4760) on the ABP-ACE2 interaction; parameters: Soluble ACE2 (5 µL, 0.62 mg/mL) was mixed with 50 µL normal human serum; details: immobilized biotinylated peptide; for inhibition of ABP binding to ACE2 by AngII: 500 nM ACE2 + 5 uM AngII (10-fold excess); for inhibition of ABP binding to ACE2 by MLN-4760: 500 nM ACE2 + 5 uM MLN-4760 (10-fold excess)
T1 sequence (Q9BYF1 18-740 limits assumed): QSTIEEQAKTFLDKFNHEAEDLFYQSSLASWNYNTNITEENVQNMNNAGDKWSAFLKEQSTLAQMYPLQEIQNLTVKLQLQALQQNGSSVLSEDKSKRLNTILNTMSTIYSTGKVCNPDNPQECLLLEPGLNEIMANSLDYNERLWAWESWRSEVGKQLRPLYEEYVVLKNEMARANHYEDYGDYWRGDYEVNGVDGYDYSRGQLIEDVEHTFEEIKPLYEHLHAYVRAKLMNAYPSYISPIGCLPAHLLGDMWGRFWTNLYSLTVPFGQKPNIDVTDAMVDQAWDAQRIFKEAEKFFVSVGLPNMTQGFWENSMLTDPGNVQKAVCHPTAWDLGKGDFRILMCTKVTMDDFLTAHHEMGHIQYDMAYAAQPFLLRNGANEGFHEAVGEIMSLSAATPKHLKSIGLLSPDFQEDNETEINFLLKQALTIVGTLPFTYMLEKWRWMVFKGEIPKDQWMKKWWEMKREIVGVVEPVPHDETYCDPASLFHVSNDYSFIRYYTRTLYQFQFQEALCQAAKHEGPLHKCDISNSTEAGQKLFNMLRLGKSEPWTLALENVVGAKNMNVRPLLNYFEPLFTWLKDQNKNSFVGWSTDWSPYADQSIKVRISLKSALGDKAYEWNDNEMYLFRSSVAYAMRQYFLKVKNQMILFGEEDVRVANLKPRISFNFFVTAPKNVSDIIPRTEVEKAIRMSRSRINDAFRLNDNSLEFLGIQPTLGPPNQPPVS

12ca5 = assay: BLI binding to an unrelated (off-target) protein; details: BLI, 12ca5 at 500 nM
Protocol: Peptide binding validation was carried out using the ForteBio Octet RED96 system. The chamber temperature was kept constant at 30 °C with a plate agitation speed at 1000 rpm. Briefly, streptavidin (SA)-coated biosensor tips were dipped into 200 μL of 1.0–2.0 μM biotinylated peptide solution (in a kinetic buffer (K.B.): 1 × PBS with 0.1% BSA and 0.02% Tween-20) for peptides immobilization. Once loaded with peptides, the tips were then moved into solutions containing various concentrations (1000, 500, 250, 125, and 62.5 nM) of recombinant ACE2 protein (purchased from Sino Biological, Catalog number 10108-H08H) in the K.B. to obtain the association curve. After the 180 s association step, the tips were moved back into the K.B. to obtain the dissociation curve. Buffer-only and protein-only conditions (concentration at 1000 nM) were used as references for background subtraction. The association and dissociation curves were fitted with the ForteBio Biosystems Data Analysis Software under 5 experimental conditions (n = 5, global fitting algorithm, binding model 1:1) to calculate the apparent dissociation constant (KD). […]
4.4 The binding of ABP noncanonical peptides to an unrelated protein
N6, and N8 to an unrelated protein, 12ca5, measured by BLI at concentration
(§1) (1 picture or pasted object on this page, not shown here)

ACE2 [2] = biological target: T1, ACE2; assay: Bio-layer interferometry (BLI) binding of immobilized biotinylated peptides to ACE2; details: BLI; for binding to ACE2 by BLI (in words): scrambled peptides tested at 250 nM ACE2; for pKd: biotinylated peptide on streptavidin tips, ACE2 1000-62.5 nM, 30 °C, global 1:1 fit, read-out: KD (dissociation constant) to ACE2
Protocol: Peptide binding validation was carried out using the ForteBio Octet RED96 system. The chamber temperature was kept constant at 30 °C with a plate agitation speed at 1000 rpm. Briefly, streptavidin (SA)-coated biosensor tips were dipped into 200 μL of 1.0–2.0 μM biotinylated peptide solution (in a kinetic buffer (K.B.): 1 × PBS with 0.1% BSA and 0.02% Tween-20) for peptides immobilization. Once loaded with peptides, the tips were then moved into solutions containing various concentrations (1000, 500, 250, 125, and 62.5 nM) of recombinant ACE2 protein (purchased from Sino Biological, Catalog number 10108-H08H) in the K.B. to obtain the association curve. After the 180 s association step, the tips were moved back into the K.B. to obtain the dissociation curve. Buffer-only and protein-only conditions (concentration at 1000 nM) were used as references for background subtraction. The association and dissociation curves were fitted with the ForteBio Biosystems Data Analysis Software under 5 experimental conditions (n = 5, global fitting algorithm, binding model 1:1) to calculate the apparent dissociation constant (KD).
Supplementary Note 4: Binding affinity measurements
4.1 BLI raw binding data of noncanonical peptides […]
affinity was reported using the kinetic fitting results ( KD is calculated by divide the […]
off rate by on rate). […] The ACE2
as §1
4.2 BLI raw binding data of canonical peptides
Supplementary Fig. 20. The BLI binding curve fitting (red lines) of ABP C1-C4 and ABP C7-C9 from Library 1 AS-MS against ACE2.
ACE2 concentration was 250 nM.

ACE2 [3] = biological target: T1, ACE2; assay: ELISA detection of ACE2 coated from 1 x PBS; type: binding; details: ACE2 in 1 x PBS 10 pM-100 nM coated; biotinylated peptide 100 nM; streptavidin-HRP, TMB, A450
Protocol: However, we observed a decreased detection sensitivity presumably due to the decreased amount of ACE2 being immobilized on the plate with many other serum proteins present. […] The plate was incubated with ABP N1 or control peptide, followed by streptavidin-HRP and TMB substrate. Absorbance was measured at 450 nm. The experiment was performed in technical triplicates (n = 3). Each data point, the mean signal as a bar, and error bars from experimental standard deviation, and statistical significance calculated with the unpaired Student’s t-test are shown. A serial dilution of soluble ACE2 was coated onto an ELISA plate (96-well format) overnight at 4 °C. The next day, the plate was blocked with 5% BSA in 1 × PBS supplement with 0.05% Tween-20 (PBST, pH 7.4) for 2–3 h at room temperature. […] Control groups are biotinylated peptide ABP N8 and PBST alone. The supernatant was then removed, and the wells were washed with PBST (3× 200 µL). Streptavidin-HRP conjugate in PBST (0.25 µg/mL, 100 µL) was added to each well and incubated for 30 min at room temperature. The plate was PBST-washed again (3 × 200 µL) before color development with 100 µL 1-Step™ Ultra TMB-ELISA Substrate Solution (Thermo Fisher, Catalog number 34028). After 10 min, the reaction was quenched with 2.0 M sulfuric acid (100 µL). Finally, the absorbance at 450 nm was measured on a microplate reader (BioTek) for all treated wells. […]

COc1ccc(C[C@H](NC(=O)[C@H](Cc2ccc(F)c(F)c2)NC(=O)[C@@H]2C[C@@H](O)CN2C(=O)[C@H]2CCCN2C(=O)[C@H]2CCCN2C(=O)CNC(=O)[C@H](CC2CC2)NC(=O)[C@H](Cc2cscn2)NC(=O)[C@@H](N)CC2CC2)C(=O)N[C@@H](Cc2cscn2)C(=O)NCCC(=O)NCc2ccc(C(=O)N[C@@H](CCCCN)C(N)=O)cc2)cc1OC [ABP N4] (H-[Ala(cPr)][Ala(4-thiazolyl)][Ala(cPr)]G[dP][dP][Hyp][Phe(3,4-F2)][Phe(3,4-(OMe)2)][Ala(4-thiazolyl)][βAla][4Amb]K-NH2)
inhibition of ABP binding to ACE2 by AngII (ACE2 [1]): not inhibited | inhibition of ABP binding to ACE2 by MLN-4760 (ACE2 [1]): completely inhibited | binding to unrelated protein 12ca5 (in words) (12ca5): minimal binding | binding to unrelated protein 12ca5 (in words) (12ca5; listed as N4): No apparent binding

CS(=O)(=O)CC[C@H](NC(=O)[C@H]1CCCN1C(=O)[C@H](CCC(N)=O)NC(=O)CNC(=O)[C@H](Cc1ccc(F)c(F)c1)NC(=O)[C@H](Cc1cscn1)NC(=O)[C@@H](N)CC1CC1)C(=O)N[C@@H](CC1CCCCC1)C(=O)N[C@@H](CCC(N)=O)C(=O)N[C@@H](Cc1cscn1)C(=O)NCCC(=O)N[C@@H](Cc1cscn1)C(=O)N[C@@H](CCCCN)C(N)=O [ABP N5] (H-[Ala(cPr)][Ala(4-thiazolyl)][Phe(3,4-F2)]GQ[dP][Met(O2)][Cha]Q[Ala(4-thiazolyl)][βAla][Ala(4-thiazolyl)]K-NH2; N-terminus assumed)
binding to ACE2 by BLI (in words) (ACE2 [2]): no binding | binding to unrelated protein 12ca5 (in words) (12ca5): No apparent binding

CS(=O)(=O)CC[C@H](NC(=O)[C@H](Cc1ccc(F)c(F)c1)NC(=O)[C@H](CCCN)NC(=O)[C@@H](N)CC1CC1)C(=O)N1C[C@H](O)C[C@H]1C(=O)N[C@@H](Cc1cscn1)C(=O)N1CCC[C@@H]1C(=O)N[C@@H](CCC(N)=O)C(=O)N[C@@H](Cc1ccc(F)c(F)c1)C(=O)N[C@@H](CC1CCCCC1)C(=O)N[C@@H](CC1CCCCC1)C(=O)NCCC(=O)N[C@@H](CCCCN)C(N)=O [ABP N6] (H-[Ala(cPr)][Orn][Phe(3,4-F2)][Met(O2)][Hyp][Ala(4-thiazolyl)][dP]Q[Phe(3,4-F2)][Cha][Cha][βAla]K-NH2)
inhibition of ABP binding to ACE2 by AngII (ACE2 [1]): not inhibited | inhibition of ABP binding to ACE2 by MLN-4760 (ACE2 [1]): not inhibited | binding to unrelated protein 12ca5 (in words) (12ca5): minimal binding | binding to unrelated protein 12ca5 (in words) (12ca5; listed as N6): No apparent binding

CS(=O)(=O)CC[C@H](NC(=O)[C@H](Cc1ccc(F)c(F)c1)NC(=O)[C@H](CCS(C)(=O)=O)NC(=O)[C@H](CC1CCCCC1)NC(=O)[C@H](CC(=O)O)NC(=O)C1(c2ccccc2)CCN(C(=O)CCNC(=O)CNC(=O)[C@H]2CCCN2C(=O)[C@H](CCCCNC(=N)N)NC(=O)[C@H](Cc2cscn2)NC(=O)[C@@H](N)CC2CC2)CC1)C(=O)N[C@@H](CCCCN)C(N)=O [ABP N8] (H-[Ala(cPr)][Ala(4-thiazolyl)][hArg][dP]G[βAla][X1]D[Cha][Met(O2)][Phe(3,4-F2)][Met(O2)]K-NH2; N-terminus assumed)
binding to ACE2 by BLI (in words) (ACE2 [2]): no binding | ELISA detection of ACE2 (in words) (ACE2 [3]): no binding | binding to unrelated protein 12ca5 (in words) (12ca5): No apparent binding

CS(=O)(=O)CC[C@H](NC(=O)C[C@H](CO)NC(=O)[C@H](CC1CC1)NC(=O)[C@@H](N)Cc1cscn1)C(=O)N[C@@H](CC1CCCCC1)C(=O)N[C@@H](Cc1cscn1)C(=O)N[C@@H](CCCN)C(=O)N[C@@H](Cc1ccc(F)c(F)c1)C(=O)N[C@@H](CCCN)C(=O)N[C@@H](CCC(N)=O)C(=O)NCC(=O)N[C@@H](Cc1ccc(N)cc1)C(=O)N[C@@H](CCCCN)C(N)=O [Scrm N1.1] (H-[Ala(4-thiazolyl)][Ala(cPr)][β3hS][Met(O2)][Cha][Ala(4-thiazolyl)][Orn][Phe(3,4-F2)][Orn]QG[Phe(4-NH2)]K-NH2; N-terminus assumed)
binding to ACE2 by BLI (in words) (ACE2 [2]): No apparent binding

CS(=O)(=O)CC[C@H](N)C(=O)N[C@@H](CCCN)C(=O)N[C@@H](CC1CCCCC1)C(=O)N[C@@H](Cc1ccc(F)c(F)c1)C(=O)N[C@@H](Cc1ccc(F)c(F)c1)C(=O)N[C@@H](CO)CC(=O)NCC(=O)N[C@@H](Cc1cscn1)C(=O)N[C@@H](Cc1cscn1)C(=O)N[C@@H](CC1CC1)C(=O)N[C@@H](CCC(N)=O)C(=O)N[C@@H](CCCN)C(=O)N[C@@H](CCCCN)C(N)=O [Scrm N1.2] (H-[Met(O2)][Orn][Cha][Phe(3,4-F2)][Phe(3,4-F2)][β3hS]G[Ala(4-thiazolyl)][Ala(4-thiazolyl)][Ala(cPr)]Q[Orn]K-NH2; N-terminus assumed)
binding to ACE2 by BLI (in words) (ACE2 [2]): No apparent binding

LHKQFGWHWFGFK-NH2 [ABP C3]
pKd (ACE2 [2]): 7.46

LQAKPVPQFWPFK-NH2 [ABP C5]
binding to ACE2 by BLI (in words) (ACE2 [2]): no binding

LQKFLGERFPGWK-NH2 [ABP C6]
binding to ACE2 by BLI (in words) (ACE2 [2]): no binding

LQRGVFGFPYRVK-NH2 [ABP C7]
pKd (ACE2 [2]): 7.59

LQWHPAYWFMQVK-NH2 [ABP C8]
pKd (ACE2 [2]): 7.44
